We go through 34 molecules from patent US8440837B2, “2-substituted-ethynylthiazole derivatives and uses of same” (H. Lundbeck A/S, priority 2009, dated 2013).

This assay concerns the target human metabotropic glutamate receptor 5 (hmGluR5) (UniProt P31424). In words: Calcium mobilization (FLIPR) assay, positive allosteric modulation of the EC20 glutamate response. It is filed as cell-based. As to conditions: HEK 293 cells; for maximum modulation (Emax): EC20 glutamate response; for EC50: increase in EC20 glutamate response. The protocol:
The cDNA for human metabotropic glutamate receptor 5 (hmGluR5) was a generous gift from S. Nakanishi (Kyoto University, Kyoto, Japan). The […] was stably expressed in a HEK 293 cell line and grown in Dulbecco's Modified Eagle Medium (DMEM) (Invitrogen, Carlsbad, Calif.) with supplements (10% bovine calf serum, 4 mM glutamine, 100 units/mL penicillin, 100 μg/mL streptomycin and […]) at 37° C., 5% CO2. Twenty-four hours prior to assay, cells were seeded into 384-well black wall microtiter plates coated with poly-D-lysine. Just prior to assay, media was aspirated and cells dye-loaded (25 μL/well) with 3 μM Fluo-4/0.01% pluronic acid in assay buffer (Hank's Balanced Saline Solution (HBSS)): 150 mM NaCl, 5 mM KCl, 1 mM CaCl2, 1 mM MgCl2, plus 20 mM N-2-Hydroxyethylpiperazine-N′-2-ethanesulfonic acid (HEPES), pH 7.4, 0.1% bovine serum albumin (BSA) and 2.5 mM probenicid) for 1 hour in 5% CO2 at 37° C. After excess dye was discarded, cells were washed in assay buffer and layered with a final volume equal to 30 μL/well. Basal fluorescence is monitored in a fluorometric imaging plate reader (FLIPR) (Molecular Devices, Sunnyvale, Calif.) with an excitation wavelength of 488 nm and an emission range of 500 to 560 nm. Laser excitation energy was adjusted so that basal fluorescence readings were approximately 10,000 relative fluorescent units. Cells were stimulated with an EC20 or an EC80 concentration of glutamate in the presence of a compound to be tested, both diluted in assay buffer, and relative fluorescent units were measured at defined intervals (exposure=0.6 sec) over a 3 min period at room temperature. Basal readings derived from negative controls were subtracted from all samples. Maximum change in fluorescence was calculated for each well. Concentration-response curves derived from the maximum change in fluorescence were analyzed by nonlinear regression (Hill equation).
A silent allosteric modulator (SAM) can be identified by using a combination of both the calcium mobilization assay data and the radioligand binding data. As used herein, the term “silent allosteric modulator” refers to a ligand that binds to an allosteric site of the receptor but has no measurable intrinsic efficacy.
(Calcium flux is commonly read through the fluorescence of an indicator in the cells.)

The term EC50 denotes the concentration needed to bring the measured effect to its halfway point. As to `C(#Cc1ncc(CN2CCCCC2)s1)c1ccccc1` [Example 206, 1-(2-Phenylethynyl-thiazol-5-ylmethyl)-piperidine], the “maximum modulation (Emax)” value stood at 130% and the EC50 amounted to 97 nM.
For `CC1(O)CCCN(C(=O)c2cnc(C#Cc3ccccc3)s2)CC1` (stereo not shown) [Example 151, (4-Hydroxy-4-methyl-azepan-1-yl)-(2-phenylethynyl-thiazol-5-yl)-methanone], in that order: 61% and 73 nM.
For `O=C(c1cnc(C#Cc2ccsc2)s1)N1CCCCC1` [Example 190, Piperidin-1-yl-(2-thiophen-3-ylethynyl-thiazol-5-yl)-methanone], in that order: 78% and 5.2 nM.
For `O=C1CCN(C(=O)c2cnc(C#Cc3ccccc3)s2)C1` [Example 140, 1-(2-Phenylethynyl-thiazole-5-carbonyl)-pyrrolidin-3-one], in that order: 110% and 110 nM.
On to `O=C(c1cnc(C#Cc2ccc(F)cc2)s1)N1CCCCC1` [Example 30, [2-(4-Fluoro-phenylethynyl)-thiazol-5-yl]-piperidin-1-yl-methanone], for which the “maximum modulation (Emax)” value was determined as 110% and the EC50 stood at 29 nM.
For `N#Cc1cccc(C#Cc2ncc(C(=O)N3CCCCC3)s2)c1` [Example 196, 3-[5-(Piperidine-1-carbonyl)-thiazol-2-ylethynyl]-benzonitrile] the same measures were 45% and 12 nM.
For `CN1CCN(C(=O)c2cnc(C#Cc3ccccc3)s2)CC1` [Example 42, (4-Methyl-piperazin-1-yl)-(2-phenylethynyl-thiazol-5-yl)-methanone], in that order: 160% and 530 nM.
For `CCN1CCN(C(=O)c2cnc(C#Cc3cccc(Cl)c3)s2)CC1` [Example 159, [2-(3-Chloro-phenylethynyl)-thiazol-5-yl]-(4-ethyl-piperazin-1-yl)-methanone] the same measures were 74% and 510 nM.
As to `O=C(c1cnc(C#Cc2ccccc2)s1)N1CCN(c2ccccc2)CC1` [Example 41, (2-Phenylethynyl-thiazol-5-yl)-(4-phenyl-piperazin-1-yl)-methanone], the “maximum modulation (Emax)” value is on record as 52% and the EC50 is 360 nM.
For `O=C(c1cnc(C#Cc2ccccc2)s1)N1CC2CCC1C2` (stereo not shown) [Example 146, (2-Aza-bicyclo[2.2.1]hept-2-yl)-(2-phenylethynyl-thiazol-5-yl)-methanone], in that order: 69% and 8.2 nM.
For `CC1(O)CCN(C(=O)c2cnc(C#Cc3ccccc3)s2)CC1` [Example 80, (4-Hydroxy-4-methyl-piperidin-1-yl)-(2-phenylethynyl-thiazol-5-yl)-methanone], in that order: 120% and 290 nM.
For `C(#Cc1ncc(CN2CC3CCC2C3)s1)c1ccccc1` (stereo not shown) [Example 218, 2-(2-Phenylethynyl-thiazol-5-ylmethyl)-2-aza-bicyclo[2.2.1]heptane] the same measures were 79% and 380 nM.
`O=C(c1cnc(C#Cc2ccccc2)s1)N1CCc2[nH]ncc2C1` [Example 77, (2-Phenylethynyl-thiazol-5-yl)-(1,4,6,7-tetrahydro-pyrazolo[4,3-c]pyridin-5-yl)-methanone]: the “maximum modulation (Emax)” value is 120% and the EC50 stood at 100 nM.
For `CC1CCN(C(=O)c2cnc(C#Cc3cccc(F)c3)s2)CC1` [Example 20], in that order: 110% and 0.71 nM.
For `CC(c1cnc(C#Cc2ccccc2)s1)N1CCOCC1` (stereo not shown) [Example 232, 4-[1-(2-Phenylethynyl-thiazol-5-yl)-ethyl]-morpholine] the same measures were 62% and 220 nM.
For the molecule `CC(=O)c1cnc(C#Cc2ccccc2)s1` [Example 239, 1-(2-Phenylethynyl-thiazol-5-yl)-ethanone], the “maximum modulation (Emax)” value was 170% and the EC50 was 190 nM.
For `O=C(c1cnc(C#Cc2ccccc2)s1)N1CC(N2CCOCC2)C1` [Example 132, (3-Morpholin-4-yl-azetidin-1-yl)-(2-phenylethynyl-thiazol-5-yl)-methanone], in that order: 40% and 230 nM.
For `O=C(c1cnc(C#CC2CCCCC2)s1)N1CCCCC1` [Example 200, (2-Cyclohexylethynyl-thiazol-5-yl)-piperidin-1-yl-methanone] the same measures were 160% and 510 nM.
For `O=C(c1cnc(C#Cc2ccccc2)s1)N1CCCC(N2CCOCC2)CC1` (stereo not shown) [Example 148, (4-Morpholin-4-yl-azepan-1-yl)-(2-phenylethynyl-thiazol-5-yl)-methanone], in that order: 100% and 3400 nM.
As for `O=C(c1cnc(C#Cc2ccccc2)s1)N1CCC(C(F)(F)F)CC1` [Example 111, (2-Phenylethynyl-thiazol-5-yl)-(4-trifluoromethyl-piperidin-1-yl)-methanone], the “maximum modulation (Emax)” value amounted to 130% and the EC50 was found to be 64 nM.
For `O=C(c1cnc(C#Cc2ccccc2)s1)N1CCC2(CCCO2)CC1` [Example 78], in that order: 120% and 200 nM.
For `CCOC1CCN(C(=O)c2cnc(C#Cc3ccccc3)s2)CC1` [Example 122, (4-Ethoxy-piperidin-1-yl)-(2-phenylethynyl-thiazol-5-yl)-methanone] the same measures were 130% and 220 nM.
Consider `OC(c1cnc(C#Cc2ccccc2)s1)C1CCCCC1` (stereo not shown) [Example 235, Cyclohexyl-(2-phenylethynyl-thiazol-5-yl)-methanol], for which the “maximum modulation (Emax)” value is on record as 50% and the EC50 came out at 53 nM.
For `COC1CCN(C(=O)c2cnc(C#Cc3ccccc3)s2)CC1` [Example 121, (4-Methoxy-piperidin-1-yl)-(2-phenylethynyl-thiazol-5-yl)-methanone], in that order: 140% and 58 nM.
For `COC1CCCN(C(=O)c2cnc(C#Cc3ccccc3)s2)C1` (stereo not shown) [Example 119, (3-Methoxy-piperidin-1-yl)-(2-phenylethynyl-thiazol-5-yl)-methanone] the same measures were 46% and 140 nM.
For `O=C(c1cnc(C#Cc2ccccc2)s1)N1CCC(N2CCCC2)C1` (stereo not shown) [Example 141, [1,3]Bipyrrolidinyl-1-yl-(2-phenylethynyl-thiazol-5-yl)-methanone], the EC50 is 4000 nM.
As for `O=C(c1cnc(C#Cc2ccccc2)s1)N1CC2(COC2)C1` [Example 167, (2-Oxa-6-aza-spiro[3.3]hept-6-yl)-(2-phenylethynyl-thiazol-5-yl)-methanone], the “maximum modulation (Emax)” value came out at 150% and the EC50 was determined as 1900 nM.
Take `C(#Cc1ncc(CN2CCCC2)s1)c1ccccc1` [Example 207, 2-Phenylethynyl-5-pyrrolidin-1-ylmethyl-thiazole]: the “maximum modulation (Emax)” value came out at 110% and the EC50 worked out at 220 nM.
Take `F[C@@H]1CCN(Cc2cnc(C#Cc3ccccc3)s2)C1` [Example 230, 5-((R)-3-Fluoro-pyrrolidin-1-ylmethyl)-2-phenylethynyl-thiazole]: the “maximum modulation (Emax)” value turned out to be 110% and the EC50 came to 33 nM.
For `Cc1cccc(C#Cc2ncc(C(=O)N3CCC(O)CC3)s2)c1` [Example 25, (4-Hydroxy-piperidin-1-yl)-(2-m-tolylethynyl-thiazol-5-yl)-methanone] the same measures were 50% and 55 nM.
For `O=C(c1cnc(C#Cc2ccc(F)cc2)s1)N1CCC(O)CC1` [Example 29, [2-(4-Fluoro-phenylethynyl)-thiazol-5-yl]-(4-hydroxy-piperidin-1-yl)-methanone] the same measures were 100% and 2400 nM.
With `COC1CN(Cc2cnc(C#Cc3ccccc3)s2)C1` [Example 214, 5-(3-Methoxy-azetidin-1-ylmethyl)-2-phenylethynyl-thiazole], the “maximum modulation (Emax)” value turned out to be 120% and the EC50 is 760 nM.
For `O=C(c1cnc(C#Cc2ccccc2)s1)N1CCc2sccc2C1` [Example 135, (6,7-Dihydro-4H-thieno[3,2-c]pyridin-5-yl)-(2-phenylethynyl-thiazol-5-yl)-methanone], in that order: 180% and 20 nM.
`COc1ccc(C#Cc2ncc(C(=O)N3CCCCC3)s2)cc1` [Example 192, [2-(4-Methoxy-phenylethynyl)-thiazol-5-yl]-piperidin-1-yl-methasone]: the “maximum modulation (Emax)” value stood at 64% and the EC50 was determined as 2200 nM.
